Data: US7173053B2, “N-formyl hydroxylamine derivatives as inhibitors of bacterial polypeptide formylase for treating microbial infections” (British Biotech Pharmaceuticals Limited, priority 2000, dated 2007)
≈ marks a conversion by molar mass, not a printed value.

Key:
S. pneumoniae ATCC 49619 = experiment: agar plate dilution MIC, S. pneumoniae ATCC 49619; assay type: cell-based; details: Streptococcus pneumoniae, ATCC49619, Iso-Sensitest agar pH 7.2, 18 to 24 hr incubation
Procedure: (§1) The susceptibilities of two strains of bacteria to the compounds of Example 1–4 were determined by a standard agar plate dilution method following recommendations in British Society for Antimicrobial Chemotherapy Working Party. 1991, “A guide to sensitivity testing British Society for Antimicrobial Chemotherapy, London, United Kingdom”. Briefly, Iso-Sensitest agar (pH 7.2: Oxoid, United Kingdom) is employed, supplemented with 5% horse blood (Oxoid) and 20 μg of NAD (Sigma) per ml are added to support growth of fastidious bacteria. The inoculum used is approximately 10^4 colony forming units of each isolate contained in a volume of 1 μl. Plates are incubated 18 to 24 hr in air, or for fasidious bacteria an atmosphere enriched with 4–6% carbon dioxide at 35° C. The MIC is determined as the lowest concentration of an antimicrobial tested that inhibited growth of the inoculum, disregarding a single persisting colony or faint haze caused by the inoculation.

S. aureus ATCC 29213 = experiment: agar plate dilution MIC, S. aureus ATCC 29213; assay type: cell-based; details: Staphylococcus aureus, ATCC29213, Iso-Sensitest agar pH 7.2, 18 to 24 hr incubation
Procedure: as §1

MIC (S. pneumoniae ATCC 49619) | MIC (S. aureus ATCC 29213) | SMILES
2 µg/mL (≈ 4.78 µM) | 4 µg/mL (≈ 9.56 µM) | CC(C)(C)[C@H](NC(=O)[C@H](CC1CCCC1)CN(O)C=O)c1nc2cc(F)ccc2[nH]1 [Example 1, 2R-Cyclopentylmethyl-N-[1S-(5-fluoro-1H-benzoimidazol-2-yl)-2,2-dimethyl-propyl]-3-(formyl-hydroxy-amino)-propionamide]
2 µg/mL (≈ 4.6 µM) | 8 µg/mL (≈ 18.4 µM) | CC(C)(C)[C@H](NC(=O)[C@H](CC1CCCC1)CN(O)C=O)c1nc2cc(Cl)ccc2[nH]1 [Example 2, N-[1-(5-Chloro-1H-benzoimidazol-2-yl)-2,2-dimethyl-propyl]-2-cyclopentylmethyl-3-(formyl-hydroxy-amino)-propionamide]
2 µg/mL (≈ 4.99 µM) | 8 µg/mL (≈ 20 µM) | CC(C)(C)[C@H](NC(=O)[C@H](CC1CCCC1)CN(O)C=O)c1nc2ccccc2[nH]1 [Example 3, N-[1-(1H-Benzoimidazol-2-yl)-2,2-dimethyl-propyl]-2-cyclopentylmethyl-3-(formyl-hydroxy-amino)-propionamide]
4 µg/mL (≈ 10.7 µM) | 8 µg/mL (≈ 21.4 µM) | CCCC[C@H](CN(O)C=O)C(=O)N[C@H](c1nc2ccccc2[nH]1)C(C)(C)C [Example 4, 2-[(Formyl-hydroxy-amino)-methyl]-hexanoic acid [1-(1H-benzoimidazol-2-yl)-2,2-dimethyl-propyl]-amide]
